In patent US5594019A, “6-heterocyclic-4-amino-1,3,4,5-tetrahydrobenz[CD]indoles” (Eli Lilly and Company, priority 1994, dated 1997):
Where two headings read alike, the source gives them in different places.

Experiments:
[1] = tested on: serotonin metabolite 5-hydroxyindole acetic acid (5HIAA); test: Effect on serotonin turnover in vivo, decrease of 5HIAA concentration in whole brain; parameters: species or system Male albino rats; conditions: Rattus norvegicus, 1 h, rats, whole brain 5HIAA, one hour after dosing (generally a 15-20% decrease)
Description: In another experiment certain compounds of Formula 1 were evaluated to determine ability to affect serotonin turnover in vivo. As a measure of such affect on serotonin turnover, the decrease of the serotonin metabolite 5-hydroxyindole acetic acid (5HIAA) was measured. The following protocol was employed.
Male albino rats were injected either subcutaneously or orally with an aqueous solution of the compound tested. The pH of the solution was adjusted as necessary to solubilize the compound. A control of the solution without the test compound was similarly administered to a control animal. The rats were decapitated one hour later. The whole brain was then removed and frozen on dry ice for storage prior to analysis. 5-Hydroxyindole acetic acid (5HIAA) concentration in whole brain was measured by liquid chromatography with electrochemical detection as reported by Fuller and Perry, "Effects of Buspirone and its Metabolite, 1-(2-pyrimidinyi)piperazine, on Brain Monoamines and Their Metabolites in Rats", J. Pharmacol. Ext. Ther., 248, p. 50-56 (1989), incorporated herein by reference.
In Table III, Column 1 provides the Example No. of the compound tested while Column 2 provides the minimum effective dose (in mg/kg) required to produce a statistically significant decrease in 5HIAA concentration relative to control (generally a 15-20% decrease) for both oral and subcutaneous methods of administration.

[2] = target: T1, 5-HT1A receptor (Rattus norvegicus, UniProt P19327); test: In vitro binding at the 5-HT1A receptor, inhibition of [3H]8-OH-DPAT binding to hippocampal membranes; parameters: species or system male Sprague-Dawley rats; conditions: [3H]8-OH-DPAT (1.0 nM), 10 minutes at 37° C., pH 7.4
T1 construct: the brains were rapidly chilled and dissected to obtain the hippocampi; from tissue; host or cells: hippocampus of male Sprague-Dawley rats (membranes)
T1 sequence (P19327 1-422): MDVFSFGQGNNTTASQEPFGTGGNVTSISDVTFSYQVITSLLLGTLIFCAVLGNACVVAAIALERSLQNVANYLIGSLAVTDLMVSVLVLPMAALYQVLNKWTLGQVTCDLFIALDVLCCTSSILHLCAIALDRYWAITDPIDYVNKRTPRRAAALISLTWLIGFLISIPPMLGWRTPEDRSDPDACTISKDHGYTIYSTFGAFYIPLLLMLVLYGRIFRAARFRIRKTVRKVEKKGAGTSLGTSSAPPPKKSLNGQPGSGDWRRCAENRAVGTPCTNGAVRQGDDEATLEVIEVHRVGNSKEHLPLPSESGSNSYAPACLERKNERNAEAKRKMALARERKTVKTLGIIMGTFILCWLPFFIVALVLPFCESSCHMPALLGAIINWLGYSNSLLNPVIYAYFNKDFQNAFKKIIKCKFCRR
Description: The affinities of certain of the compounds of Formula 1 at the central 5-HT1A receptors were determined using a modification of the binding assay described by Taylor, et al., J. Pharmacol. Exp. Ther., 236, 118-125 (1986). Membranes for the binding assay were prepared from male Sprague-Dawley rats (150-250 g). The animals were killed by decapitation, and the brains were rapidly chilled and dissected to obtain the hippocampi. Membranes from the hippocampi were either prepared that day, or the hippocampi were stored frozen (-70° C.) until the day of preparation. The membranes were prepared by homogenizing the tissue in 40 volumes of ice-cold Tris-HCl buffer (50 mM, pH 7.4 at 22° C.) using a Techmar Tissumizer (setting 65 for 15 seconds), and the homogenate was centrifuged at 39800xg for 10 minutes. The resulting pellet was then resuspended in the same buffer, and the centrifugation and resuspension process was repeated three additional times to wash the membranes. Between the second and third washes the resuspended membranes were incubated for 10 minutes at 37° C. to facilitate the removal of endogenous ligands. The final pellet was resuspended in 67 mM Tris-HCl, pH 7.4, to a concentration of 2 mg of tissue original wet weight/200 μl. This homogenate was stored frozen (-70° C.) until the day of the binding assay. […] The assay tubes were incubated for 10 minutes at 37° C., and the contents were then rapidly filtered through GF/B filters (pretreated with 0.5% polyethylenimine), tollowed by four 1 ml washes with ice-cold buffer. The radioactivity trapped by the filters was quantitated by liquid scintillation spectometry, and specific [^3 H]8-OH-DPAT binding to the 5-HT1A sites was defined as the difference between [^3 H]8-OH-DPAT bound in the presence and absence of 10 μM 5-HT.
In Table 1, the first column provides the example number of the compound evaluated while the second column provides the amount of test compound (expressed in nanomolar concentration) required to inhibit the binding of [^3 H]8-OH-DPAT by 50% (indicated as IC50).

[3] = target: T2, 5-HT1D receptor (Bos taurus, UniProt F1MGM3); test: In vitro binding activity at the 5-HT1D receptor, inhibition of [3H]5-HT binding to caudate nuclei membranes; conditions: [3H]5-HT (1.7-1.9 nM), bovine caudate membranes, 8-OH-DPAT and mesulergine 100 nM masking, 10 minutes at 37° C., pH 7.4
T2 construct: Bovine brains were obtained and the caudate nuclei were dissected out; from tissue; host or cells: bovine caudate nuclei (membranes)
T2 sequence (F1MGM3 1-403): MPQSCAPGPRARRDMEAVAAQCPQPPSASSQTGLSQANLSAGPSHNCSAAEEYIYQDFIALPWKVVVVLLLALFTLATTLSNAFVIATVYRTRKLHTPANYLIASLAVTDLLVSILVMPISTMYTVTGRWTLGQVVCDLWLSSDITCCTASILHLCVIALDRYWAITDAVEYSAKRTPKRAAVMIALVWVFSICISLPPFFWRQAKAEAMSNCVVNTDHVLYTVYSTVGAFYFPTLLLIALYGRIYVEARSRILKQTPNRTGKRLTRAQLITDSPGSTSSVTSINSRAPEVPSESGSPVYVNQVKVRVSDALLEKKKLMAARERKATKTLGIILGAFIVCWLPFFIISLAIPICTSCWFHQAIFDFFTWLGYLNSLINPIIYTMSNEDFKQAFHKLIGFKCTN
Description: The affinities of certin of the compounds of Formula 1 at the central 5-HT1D binding sites were determined using a modification of the binding assay described by Heuring and Peroutka, J. Neurosci., 7, 894 (1987). Bovine brains were obtained and the caudate nuclei were dissected out and frozen at -70° C. until the time that the membranes were prepared for the binding assays. At that time the tissues were homogenized in 40 volumes of ice-cold Tris-HCl buffer (50 mM, pH 7.4 at 22° C.) with a Techmar Tissumizer (setting 65 for 15 seconds), and the homogenate was centrifuged at 39,800xg for 10 minutes. The resulting pellet was then resuspended in the same buffer, and the centrifugation and resuspension process was repeated three additional times to wash the membranes. Between the second and third washes the resuspended membranes were incubated for 10 minutes at 37° C. to facilitate the removal of endogenous 5-HT. The final pellet was resuspended in Tris buffer to a concentration of 25 mg of original tissue wet weight/ml for use in the binding assay. […] The assay tubes were incubated for 10 minutes at 37° C., and the contents were then rapidly filtered through GF/B filters (pretreated with 0.5% polyethylenimine), followed by four 1 ml washes with ice-cold buffer. The radioactivity trapped by the filters was quantitated by liquid scintillation spectrometry, and specific [^3 H]5-HT binding to the 5-HT1D sites was defined as the difference between [^3 H]5-HT bound in the presence and absence of […] 5-HT.
In Table 2, the first column provides the example number of the compound evaluated while the second column provides the amount of test compound (expressed in nanomolar concentration) required to inhibit the binding of [^3 H]5-HT by 50% (indicated as IC50).

[4] = po, p.o., read-out: Minimum Effective Dose (mg/kg) p.o., for a statistically significant decrease in 5HIAA concentration relative to control
[5] = sc, s.c., read-out: Minimum Effective Dose (mg/kg) s.c., for a statistically significant decrease in 5HIAA concentration relative to control

Compound	IC50 [2] [nM]	IC50 [3] [nM]	minimal effective dose [1, 4] [mg/kg]	minimal effective dose [1, 5] [mg/kg]
CCCN(CCC)[C@H]1Cc2c[nH]c3ccc(-c4cccnc4)c(c23)C1 [Example 33, (-)(4R)-6-(3-pyridyl)-4-(di-n-propylamino)-1,3,4,5-tetrahydrobenz[cd]indol]	0.87	29.4	> 10	0.3
CCCN(CCC)[C@H]1Cc2c[nH]c3ccc(-c4ccno4)c(c23)C1 [Example 26, (-)(4R)-6-(5-isoxazolyl)-4-(di-n-propylamino)-1,3,4,5-tetrahydrobenz[cd]indole]	0.1	46.4		
CCCN(CCC)[C@H]1Cc2c[nH]c3ccc(-c4nnc(-c5ccccc5)o4)c(c23)C1 [Example 35, (-)(4R)-6-(5-phenyl-1,3,4-oxadiazol-2-yl)-4-(di-n-propylamino)-1,3,4,5-tetrahydrobenz[cd]indole]	19			> 1
CCCN(CCC)[C@@H]1Cc2c[nH]c3ccc(-c4ccon4)c(c23)C1 [Example 24, (+)(4S)-6-(3-isoxazoly)-4-(di-n-propylamino)-1,3,4,5-tetrahydrobenz[cd]indole]	0.61	18.6		

The remaining compounds from weak to strong by IC50 [2], led by results:

IC50 [2] [nM]	IC50 [3] [nM]	Compound	minimal effective dose [1, 4] [mg/kg]	minimal effective dose [1, 5] [mg/kg]
7.1		CCCN(CCC)[C@H]1Cc2c[nH]c3ccc(-c4nc(-c5ccccc5)no4)c(c23)C1 [Example 30, (-)(4R)-6-(3-phenyl-1,2,4-oxadiazol-5-yl)-4-(di-n-propylamino)-1,3,4,5-tetrahydrobenz-[cd]indole]		
2.77	280	CCCN(CCC)[C@H]1Cc2c[nH]c3ccc(-c4ncco4)c(c23)C1 [Example 31, (-)(4R)-6-(2-oxazolyl)-4-(di-n-propylamino)-1,3,4,5-tetrahydrobenz[cd]indole]	1	1
0.75	577	CCCN(CCC)[C@H]1Cc2c[nH]c3ccc(-c4nnco4)c(c23)C1 [Example 34, (4R)-6-[2-(1,3,4-oxadiazolyl)]-4-(di-n-propylamino)-1,3,4,5-tetrahydrobenz[cd]indole]	10	0.1
0.53	74.4	CCCN(CCC)[C@H]1Cc2c[nH]c3ccc(-c4cnco4)c(c23)C1 [Example 32, (-)(4R)-6-(5-oxazolyl)-4-(di-n-propylamino)-1,3,4,5-tetrahydrobenz[cd]indole]		
